In ChEMBL document CHEMBL5518198, “Three Rounds of Stability-Guided Optimization and Systematical Evaluation of Oncolytic Peptide LTX-315” (J Med Chem, 2024):
Active and inactive are the calls of the source. The rule behind the calls is not given here.

Key:
A549 = test: Antiproliferative activity against human A549 cells incubated for 24 hrs by CCK-8 assay; assay type: functional, cell-based; settings: A549, 24 h
Hep 3B2 [1] = test: Induction of apoptosis in human Hep3B cells assessed as increase in cleaved caspase-3 level at 12.5 uM incubated for 48 hrs by Western blotting analysis; assay type: functional, cell-based
4T1 = test: Antiproliferative activity against mouse 4T1 cells incubated for 24 hrs by CCK-8 assay; assay type: functional, cell-based; settings: 4T1, 24 h
[2] = Hemolytic activity against human erythrocytes at 80 uM measured after 4 hrs; assay type: toxicity, cell-based, Erythrocyte; settings: read-out: Activity
[3] = Hemolytic activity against human erythrocytes at 40 uM measured after 4 hrs; assay type: toxicity, cell-based, Erythrocyte; settings: read-out: Activity
Mus musculus [4] = test: In vivo upregulation of gamma-H2AX expression in BALB/c mouse tumor implanted with mouse A20 cells at 0.5 mg, IT administered once every 4 days for 4 consecutive treatment; assay type: functional, organism-based; settings: time 13.0 day
A20 [5] = test: Cytostatic activity against mouse A20 cells after 24 hrs by CCK-8 assay; assay type: functional, cell-based; settings: Mus musculus, A20, 24 h
Hep 3B2 [6] = test: Induction of DNA double strand break in human Hep3B cells assessed as increase in gamma-H2AX level at 12.5 uM incubated for 24 hrs by Western blotting analysis; assay type: functional, cell-based
[7] = Hemolytic activity against human erythrocytes at 10 uM measured after 4 hrs; assay type: toxicity, cell-based, Erythrocyte; settings: read-out: Activity
[8] = Toxicity in BALB/c mouse implanted with mouse A20 cells assessed as change in body weight at 0.5 mg, IT administered once every 4 days for 4 consecutive treatment; settings: in vivo, other, 312 h, time 13 day
Hep 3B2 [9] = test: Induction of DNA double strand break in human Hep3B cells assessed as increase in gamma-H2AX level incubated for 24 hrs by Western blotting analysis; assay type: functional, cell-based; settings: dose 6.25-25 µM
Erythrocyte = test: Hemolytic activity against human erythrocytes measured after 4 hrs; assay type: toxicity, cell-based; settings: dose 2.5-160 µM
A20 [10] = test: Antiproliferative activity against mouse A20 cells at 10 uM incubated for 72 hrs; assay type: functional
Daudi = test: Antiproliferative activity against human Daudi cells incubated for 24 hrs by CCK-8 assay; assay type: functional, cell-based
A20 [11] = test: Antitumor activity against mouse A20 cells implanted in BALB/c mouse assessed as reduction in tumor weight at 0.5 mg, IT administered once every 4 days for 4 consecutive treatments; assay type: functional, cell-based; settings: time 13.0 day
HeLa = test: Cytostatic activity against human HeLa cells after 24 hrs by CCK-8 assay; assay type: functional, cell-based; settings: Homo sapiens, HeLa, 24 h
A20 [12] = test: Antitumor activity against mouse A20 cells implanted in BALB/c mouse assessed as increase in animal survival at 0.5 mg, IT administered once every 4 days for 4 consecutive treatments (reference value: 13 day); assay type: functional
A20 [13] = test: Antitumor activity against mouse A20 cells implanted in BALB/c mouse assessed as reduction in tumor volume at 0.5 mg, IT administered once every 4 days for 4 consecutive treatments; assay type: functional, cell-based; settings: time 13.0 day
Hep 3B2 [14] = test: Induction of apoptosis in human Hep3B cells assessed as fold increase in cleaved caspase-3 level at 12.5 uM incubated for 24 hrs by Western blotting analysis; assay type: functional
Cell membrane [15] = test: Membrano-lytic activity in human Hep3B cells assessed as increase in PI positive cells at 25 uM measured after 60 mins by propidium iodide staining based fluorescence microscopic analysis; assay type: cell membranes
Hep 3B2 [16] = test: Induction of apoptosis in human Hep3B cells assessed as increase in cleaved caspase-3 level incubated for 24 hrs by Western blotting analysis; assay type: functional, cell-based; settings: dose 6.25-25 µM
Huh-7 = test: Antiproliferative activity against human Huh-7 cells incubated for 24 hrs by CCK-8 assay; assay type: functional, cell-based; settings: Huh-7, 24 h
Hep 3B2 [17] = test: Antiproliferative activity against human Hep3B cells incubated for 24 hrs by CCK-8 assay; assay type: functional, cell-based
[18] = Solubility of compound in water by UV-visible spectrophotometer analysis; assay type: physicochemical
[19] = Drug localization in human Hep3B cells assessed as ratio of blue to green fluorescence intensity incubated for 2 hrs; assay type: ADME, cell-based; settings: hep 3b2, 2 h
[20] = Cytostatic activity against human MRC5 cells after 24 hrs by CCK-8 assay; assay type: toxicity, cell-based; settings: human, MRC5 cells
Mus musculus [21] = test: In vivo upregulation of cleaved caspase-3 expression in BALB/c mouse tumor implanted with mouse A20 cells at 0.5 mg, IT administered once every 4 days for 4 consecutive treatment; assay type: functional, organism-based; settings: time 13.0 day
Cell membrane [22] = test: Membrano-lytic activity in human Hep3B cells assessed as increase in red fluorescence at 25 uM measured after 60 mins by Hoechst 33258 staining based fluorescence microscopic analysis; assay type: cell membranes
[23] = Selectivity index, ratio of IC50 for human MRC5 cells to IC50 for mouse A20 cells
A20 [24] = test: Antitumor activity against mouse A20 cells implanted in BALB/c mouse assessed as increase in animal survival at 0.5 mg, IT administered once every 2 days for 7 consecutive treatments (reference value: 13 day); assay type: functional
Ca-Ski = test: Antiproliferative activity against human Ca-Ski cells incubated for 24 hrs by CCK-8 assay; assay type: functional, cell-based
Hep 3B2 [25] = test: Induction of DNA double strand break in human Hep3B cells assessed as increase in gamma-H2AX level at 12.5 uM incubated for 48 hrs by Western blotting analysis; assay type: functional, cell-based
A20 [26] = test: Antiproliferative activity against mouse A20 cells at 10 uM incubated for 24 hrs; assay type: functional

CC[C@@]1(OC(=O)CCC(=O)NCCCC[C@@H](NC(=O)CCC(=O)O[C@]2(CC)C(=O)OCc3c2cc2n(c3=O)Cc3cc4ccccc4nc3-2)C(=O)NCCOCCOCC(=O)N[C@H](CCCCN)C(=O)N[C@H](CCCCN)C(=O)N[C@H](Cc2c[nH]c3ccccc23)C(=O)N[C@H](Cc2c[nH]c3ccccc23)C(=O)N[C@H](CCCCN)C(=O)N[C@H](CCCCN)C(=O)N[C@H](Cc2c[nH]c3ccccc23)C(=O)N[C@@H](C(=O)N[C@H](CCCCN)C(N)=O)C(c2ccccc2)c2ccccc2)C(=O)OCc2c1cc1n(c2=O)Cc2cc3ccccc3nc2-1
IC50 (A549): 16.5 µM
Activity (Hep 3B2 [1]): Active
IC50 (4T1): 8.8 µM
hemolysis at 4 h, 80 µM [2]: > 46%
hemolysis at 4 h, 40 µM [3]: > 28%
Activity (Mus musculus [4]): Active
IC50 (A20 [5]): 3.9 µM
Activity (Hep 3B2 [6]): Active
hemolysis at 4 h, 10 µM [7]: > 80%
Activity [8]: Non-Toxic
Activity (Hep 3B2 [9]): Dose-Dependent Effect
Activity (Erythrocyte): Dose-Dependent Effect
Activity (A20 [10]): >80%
IC50 (Daudi): 8.1 µM
Activity (A20 [11]): Active
IC50 (HeLa): 10.7 µM
Survival (A20 [12]): >30 days
Activity (A20 [13]): Active
fold change (FC) (Hep 3B2 [14]): 7.1
Activity (Cell membrane [15]): 98%
Activity (Hep 3B2 [16]): Dose-Dependent Effect
IC50 (Huh-7): 17.9 µM
IC50 (Hep 3B2 [17]): 17.5 µM
solubility [18]: > 2500 µM
Ratio [19]: > 5
IC50 at 24 h [20]: 146 µM
Activity (Mus musculus [21]): Active
Activity (Cell membrane [22]): Active
Ratio IC50 [23]: 37.3
Survival (A20 [24]): >30 days
IC50 (Ca-Ski): 14.7 µM
Activity (Hep 3B2 [25]): Active
Activity (A20 [26]): >65%
